“Also recorded” adds a separate entry of the source. Like-named read-outs stand apart in the source and are kept apart here.
What was measured:
ovariectomized rats = conditions: cited from earlier work; for bone mass: ovariectomized animal; for bone strength: ovariectomized rats
[1] = system: human osteoblast cultures; assay: Bone nodule formation in vitro in human osteoblast cultures (Von Kossa stain); format: cell-based; conditions: for formation of mineralized bone by osteoblast cultures (Von Kossa stain, FIG. 2): different concentrations (10^−8 to 10^−12 molar)
Text: Human bone samples discarded after surgical procedures from patients undergoing hip/knee replacement surgeries are obtained under an approved IRB protocol (Protocol #2001-055) and processed as described below. These bone pieces are otherwise routinely discarded as waste material during surgery.
The bone pieces are thoroughly washed and cleaned under sterile conditions using phosphate-buffered saline (PBS). These pieces are then cut to obtain smaller pieces (1-2 mm^3) and subjected to enzymatic digestion process to isolate osteoblasts as described below.
Osteoblastic cells are obtained from the bone pieces by collagenase digestion. Briefly, the bone samples are washed twice in PBS and dissected in about 1 mm^3 size fragments which are then sequentially digested in trypsin (1 mg/mL) for ten minutes, followed by dispase (2 mg/mL) for twenty minutes, and bacterial collagenase [Collagenase A] (3 mg/mL) twice for thirty minutes in PBS at 37° C. in a water bath. Cells released by collagenase digestion are then washed, counted and grown to sub-confluence in 25 cm^2 cell culture flasks in 1:1 Ham's F12/Dulbecco's modification of Eagle's medium (DMEM) supplemented with 10% fetal bovine serum. Cells are cultured at 37° C. in a humidified atmosphere of 5% CO2/95% air. Medium changes are made every 2-3 days and cells are cultured until they are 80% confluent. Cells are then trypsinized, washed and frozen from early passages for evaluation using techniques as described below.
In order to evaluate the ability of osteoblasts to form bone nodules in vitro, cells are cultured in 6 well plates at 1-3×10^5 cells/well. Cells are cultured in the presence of either 1,25-(OH)2D3 or vitamin D analogs at various doses for 7 days. Complete medium changes are carried out twice during the 7-day period and the medium is supplemented with fresh compounds (either 1,25-(OH)2D3 or 2-methylene-19-nor-(20S)-1α,25-dihydroxyvitamin D3—2MD) during each medium change. At days 10 and 13, complete medium changes are carried out and the compounds are replaced by treatment with ascorbic acid (50 μg/ml) and β-glycerol phosphate (10 mM). A third dose of ascorbic acid and β-glycerol phosphate is added to the cultures on day 15 if needed. Following the culture period, cells are stained using the Von Kossa technique. Briefly, cells are stained with 5% silver nitrate for 30 minutes in the dark, rinsed with distilled water, reduced with sodium carbonate/formaldehyde solution for 2 minutes and washed under tap water for 10 minutes. The cells are then stained with methyl green pyronin for 20 minutes, washed with water followed by two washes of absolute alcohol. […] Bone nodule formation in vitro can be assessed quantitatively by various published procedures.

post-menopausal women = conditions: cited from earlier work

SMILES | bone mass (ovariectomized rats) | bone mass (ovariectomized rats; listed as 2-methylene-19-nor-20S-1,25-(OH)2D3) | bone strength (ovariectomized rats) | degree of new bone formation ([1]; 10^−12 molar) | formation of mineralized bone by osteoblast cultures (Von Kossa stain, FIG. 2) [1] | change in osteoblast cultures (photographs, FIG. 1) ([1]; 10^−8 molar, after 14 days of incubation) | bone mass (post-menopausal women) | fracture rate (post-menopausal women)
C=C1[C@H](O)CC(=C/C=C2\CCC[C@]3(C)[C@@H]([C@@H](C)CCCC(C)(C)O)CC[C@@H]23)C[C@H]1O [2MD, 2-methylene-19-nor-(20S)-1α,25-dihydroxyvitamin D3] | markedly stimulate bone mass accumulation | increase bone mass | increase bone strength | saturating degree of new bone formation | unique and strong action |  |  | 
CC1C(O)CC(=CC=C2CCC[C@]3(C)[C@@H]([C@@H](C)CCCC(C)(C)O)CC[C@@H]23)CC1O (stereo partly drawn) [2α-methyl-19-nor-20S-1,25-(OH)2D3, 2α-methyl-19-nor-20(S)-1α,25-dihydroxyvitamin D3] | increase bone mass |  | increase bone strength |  |  |  |  | 
C=C1/C(=C\C=C2/CCC[C@]3(C)[C@@H]([C@H](C)CCCC(C)(C)O)CC[C@@H]23)C[C@@H](O)C[C@@H]1O [1,25-(OH)2D3, 1α,25-dihydroxyvitamin D3] |  |  |  |  | does not produce this effect; also recorded: minimum effect | very little change | will not appreciably increase the bone mass | will decrease the fracture rate
